# Measurements: US8372391B2, “Biofungicidal composition for controlling phytopathogenic fungi” (priority 2009, dated 2013)
# Tested on: Serratia plymuthica CCGG2742
# Test: Susceptibility of Serratia plymuthica CCGG2742 to various antibiotics
# Assay type: cell-based
# Parameters: key: sensibility (S); resistance (R)
Compound,Susceptibility of Serratia plymuthica CCGG2742 to antibiotic (antibiotic 30 μg),other results
NCC[C@H](O)C(=O)N[C@@H]1C[C@H](N)[C@@H](O[C@H]2O[C@H](CN)[C@@H](O)[C@H](O)[C@H]2O)[C@H](O)[C@H]1O[C@H]1O[C@H](CO)[C@@H](O)[C@H](N)[C@H]1O [Amikacine],S,–
CC1(C)S[C@@H]2[C@H](NC(=O)[C@H](N)c3ccc(O)cc3)C(=O)N2[C@H]1C(=O)O [Amoxicillin],–,Susceptibility of Serratia plymuthica CCGG2742 to antibiotic (antibiotic 25 μg): R
CC1(C)S[C@@H]2[C@H](NC(=O)[C@H](N)c3ccccc3)C(=O)N2[C@H]1C(=O)O [Ampicillin],–,Susceptibility of Serratia plymuthica CCGG2742 to antibiotic (antibiotic 10 μg): R
C[C@H]1[C@H](NC(=O)/C(=N\OC(C)(C)C(=O)O)c2csc(N)n2)C(=O)N1S(=O)(=O)O [Aztreonam],S,–
CC1(C)S[C@@H]2[C@H](NC(=O)C(C(=O)O)c3ccccc3)C(=O)N2[C@H]1C(=O)O (some centres unmarked) [Carbenicillin],–,Susceptibility of Serratia plymuthica CCGG2742 to antibiotic (antibiotic 100 μg): S
CC1=C(C(=O)O)N2C(=O)[C@@H](NC(=O)[C@H](N)c3ccc(O)cc3)[C@H]2SC1 [Cefadroxil],R,–
CC(=O)OCC1=C(C(=O)O)N2C(=O)[C@@H](NC(=O)Cc3cccs3)[C@H]2SC1 [Cefalotin],R,–
Cc1nnc(SCC2=C(C(=O)O)N3C(=O)[C@@H](NC(=O)Cn4cnnn4)[C@H]3SC2)s1 [Cefazolin],R,–
CCN1CCN(C(=O)N[C@@H](C(=O)N[C@@H]2C(=O)N3C(C(=O)O)=C(CSc4nnnn4C)CS[C@H]23)c2ccc(O)cc2)C(=O)C1=O [Cefoperazone],–,Susceptibility of Serratia plymuthica CCGG2742 to antibiotic (antibiotic 75 μg): S
CO/N=C(\C(=O)N[C@@H]1C(=O)N2C(C(=O)O)=C(COC(C)=O)CS[C@H]12)c1csc(N)n1 [Cefotaxime],S,–
CC(C)(O/N=C(\C(=O)N[C@@H]1C(=O)N2C(C(=O)[O-])=C(C[n+]3ccccc3)CS[C@H]12)c1csc(N)n1)C(=O)O [Ceftazidime],S,–
CO/N=C(\C(=O)N[C@@H]1C(=O)N2C(C(=O)O)=C(CSc3nc(=O)c(=O)[nH]n3C)CS[C@H]12)c1csc(N)n1 [Ceftriaxone],S,–
CO/N=C(\C(=O)N[C@@H]1C(=O)N2C(C(=O)O)=C(COC(N)=O)CS[C@H]12)c1ccco1 [Cefuroxime],R,–
O=C(N[C@H](CO)[C@H](O)c1ccc([N+](=O)[O-])cc1)C(Cl)Cl [Chloramphenicol],S,–
CCC[C@@H]1C[C@@H](C(=O)N[C@@H]([C@H]2O[C@H](SC)[C@H](O)[C@@H](O)[C@H]2O)[C@H](C)Cl)N(C)C1 [Clindamycin],–,Susceptibility of Serratia plymuthica CCGG2742 to antibiotic (antibiotic 2 μg): R
CC[C@H]1OC(=O)[C@H](C)[C@@H](O[C@H]2C[C@@](C)(OC)[C@@H](O)[C@H](C)O2)[C@H](C)[C@@H](O[C@@H]2O[C@H](C)C[C@H](N(C)C)[C@H]2O)[C@](C)(O)C[C@@H](C)C(=O)[C@H](C)[C@@H](O)[C@]1(C)O [Erythromycin],–,Susceptibility of Serratia plymuthica CCGG2742 to antibiotic (antibiotic 15 μg): R
O=C1CN(/N=C/c2ccc([N+](=O)[O-])o2)C(=O)N1 [Nitrofurantoin],–,Susceptibility of Serratia plymuthica CCGG2742 to antibiotic (antibiotic 300 μg): R
CO[C@@H]1[C@@H](OC(N)=O)[C@@H](O)[C@H](Oc2ccc3c(O)c(NC(=O)c4ccc(O)c(CC=C(C)C)c4)c(=O)oc3c2C)OC1(C)C [Novobiocin],–,Susceptibility of Serratia plymuthica CCGG2742 to antibiotic (antibiotic 5 μg): R
Cc1onc(-c2ccccc2)c1C(=O)N[C@@H]1C(=O)N2[C@@H]1SC(C)(C)[C@@H]2C(=O)O [Oxacillin],–,Susceptibility of Serratia plymuthica CCGG2742 to antibiotic (antibiotic 1 μg): R
CN(C)[C@@H]1C(O)=C(C(N)=O)C(=O)[C@@]2(O)C(O)=C3C(=O)c4c(O)cccc4[C@@](C)(O)[C@H]3C[C@@H]12 [Tetracycline],R,–
CN[C@H](CC(C)C)C(=O)N[C@H]1C(=O)N[C@@H](CC(N)=O)C(=O)N[C@H]2C(=O)N[C@H]3C(=O)N[C@H](C(=O)N[C@H](C(=O)O)c4cc(O)cc(O)c4-c4cc3ccc4O)[C@H](O)c3ccc(c(Cl)c3)Oc3cc2cc(c3O[C@@H]2O[C@H](CO)[C@@H](O)[C@H](O)[C@H]2O[C@H]2C[C@](C)(N)[C@H](O)[C@H](C)O2)Oc2ccc(cc2Cl)[C@H]1O [Vancomycin],R,–
Gentamicin,–,Susceptibility of Serratia plymuthica CCGG2742 to antibiotic (antibiotic 10 μg): S
Penicillin,–,Susceptibility of Serratia plymuthica CCGG2742 to antibiotic (antibiotic 10 U): R
